This assay concerns MC4L2 mice tumor. Kind of assay: Sonography of MC4L2 mice tumor after injection of the free drug, with or without electrostatic field. Conditions: for trace of tumor after the second injection period: every 3 days.

We go through two compounds from US20210001138A1, “ELECTROSTATIC DRUG DELIVERY” (Nano Hesgarsazan Salamat Arya, priority 2019, published 2021).

SMILES strings stand for the structures.

Description: Here, three injection periods of Cisplatin were carried out every 3 days for a group of mice having a MC4L2 mice tumor as an example of triple-positive breast cancer. About 20 mg/kg of Cisplatin was applied for a Control sample with a MC4L2 mice tumor without applying an electrostatic field.
Here, four injection periods of Doxorubicin were carried out every 3 days for a group of mice having a MC4L2 mice tumor as an example of triple-positive breast cancer. About 10 mg/kg of Doxorubicin was applied for a Control sample with a MC4L2 mice tumor without applying an electrostatic field. […] All sonography images were taken after about 10 days of treatments, and all drug injections were done every about 3 days.

As to `N.N.[Cl][Pt][Cl]` [Cisplatin], the “tumor outcome in sonography images” value (about 5 mg/kg Cisplatin followed by electrostatic field, FIG. 5B) was “removed completely”. Also, the “trace of tumor after the second injection period” value (about 5 mg/kg Cisplatin per period, then DC electrostatic field -60 V to -120 V via conductive patch, sample mouse No. 1) is listed as “no observable trace of tumor”. In addition, for the setting “about 20 mg/kg Cisplatin, without electrostatic field, FIG. 4B vs FIG. 4A”, the “reduction in tumor volume” value is on record as “about 60%”.

For `COc1cccc2c1C(=O)c1c(O)c3c(c(O)c1C2=O)C[C@@](O)(C(=O)CO)C[C@@H]3O[C@H]1C[C@H](N)[C@H](O)[C@H](C)O1` [Doxorubicin], where the note is “about 1 mg/kg Doxorubicin followed by electrostatic field, sonography after about 10 days, FIG. 9B”, the “tumor outcome in sonography images” value is reported as “removed completely”. For the setting “about 1 mg/kg Doxorubicin per period, then DC electrostatic field 60 V to 120 V via conductive patch, sample mouse No. 2”, the “trace of tumor after the second injection period” value is given as “no observable trace of tumor”.
